Data on 9 compounds can be found in patent US20240190880A1 (THE REGENTS OF THE UNIVERSITY OF MICHIGAN, priority 2021, published 2024).

Usually DC50 stands for the midpoint of the concentration-degradation curve.

The target of the experiment is T1, ER (Homo sapiens, UniProt P03372).
T1 construct: host or cells: T47D and MCF7 human breast cancer cells
T1 sequence (P03372 1-595): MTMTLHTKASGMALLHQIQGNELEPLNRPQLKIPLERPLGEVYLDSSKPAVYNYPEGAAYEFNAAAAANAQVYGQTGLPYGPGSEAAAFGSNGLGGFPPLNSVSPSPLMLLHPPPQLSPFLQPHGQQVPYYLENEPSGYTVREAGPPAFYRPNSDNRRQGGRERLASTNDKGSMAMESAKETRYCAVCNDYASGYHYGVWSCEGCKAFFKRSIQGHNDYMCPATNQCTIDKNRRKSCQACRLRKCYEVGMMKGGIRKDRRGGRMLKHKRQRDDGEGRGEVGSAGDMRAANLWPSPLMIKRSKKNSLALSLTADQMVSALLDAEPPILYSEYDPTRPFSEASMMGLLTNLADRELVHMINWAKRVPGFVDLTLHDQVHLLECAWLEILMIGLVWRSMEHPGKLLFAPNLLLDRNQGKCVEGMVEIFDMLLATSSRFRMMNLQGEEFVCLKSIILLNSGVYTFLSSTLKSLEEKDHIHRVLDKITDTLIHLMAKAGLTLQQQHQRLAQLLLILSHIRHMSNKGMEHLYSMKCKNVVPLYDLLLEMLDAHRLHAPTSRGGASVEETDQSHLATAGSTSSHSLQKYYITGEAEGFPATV
Kind of experiment: ER degradation activity, in-cell western blot analysis in T47D cells. The following applies: 16 hours, Table A does not say which cell line (T47D or MCF7), read-out: Potency (DC50). It counts as cell-based. In a few lines: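 T47D cells cultured in DMEM with 10% FBS, treated with compounds (final 0.5% DMSO) for 16 h. ER level measured by in-cell western with anti-rabbit-680/anti-mouse-800 near-infrared detection. Relative ER percentage calculated against untreated and DMSO-treated wells set as 100%.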
For `O=C1CCC(N2C(=O)c3cc4c(cc3C2=O)CN(CC(=O)N2CCC3(CC2)CCN(c2ccc(C(=C(CCCl)c5ccccc5)c5ccc(O)cc5)cc2)C3)C4)C(=O)N1` (stereo not drawn) [E 190, 6-(2-(2-(4-(4-chloro-1-(4-hydroxyphenyl)-2-phenylbut-1-en-1-yl)phenyl)-2,8-diazaspiro[4.5]decan-8-yl)-2-oxoethyl)-2-(2,6-dioxopiperidin-3-yl)-6,7-dihydropyrrolo[3,4-f]isoindole-1,3(2H,5H)-dione], the DC50 lay in the range of 10 to 100 nM.

Take `O=C1CCC(N2C(=O)c3cc4c(cc3C2=O)CN(CC(=O)N2CCC3(CC2)CCN(c2c(F)cc([C@@H]5c6ccc(O)cc6CC[C@@H]5c5ccccc5)cc2F)CC3)C4)C(=O)N1` (mixture of isomers) [E 175, Rac-6-(2-(9-(2,6-difluoro-4-((1R,2S)-6-hydroxy-2-phenyl-1,2,3,4-tetrahydronaphthalen-1-yl)phenyl)-3,9-diazaspiro[5.5]undecan-3-yl)-2-oxoethyl)-2-(2,6-dioxopiperidin-3-yl)-6,7-dihydropyrrolo[3,4-f]isoindole-1,3(2H,5H)-dione]: the DC50 was more than 100 nM.

As for `C[C@@H]1Cc2c([nH]c3ccccc23)[C@@H](c2c(F)cc(N3CCC(N4Cc5cc6c(cc5C4)C(=O)N(C4CCC(=O)NC4=O)C6=O)CC3)cc2F)N1CC(F)F` (stereo partly drawn) [E 88, 6-(1-(4-((1R,3R)-2-(2,2-difluoroethyl)-3-methyl-2,3,4,9-tetrahydro-1H-pyrido[3,4-b]indol-1-yl)-3,5-difluorophenyl)piperidin-4-yl)-2-(2,6-dioxopiperidin-3-yl)-6,7-dihydropyrrolo[3,4-f]isoindole-1,3(2H,5H)-dione], the DC50 is more than 100 nM.

With `C[C@@H]1Cc2c([nH]c3ccccc23)[C@@H](c2c(F)cc(N3CC(C(=O)N4CC(N5Cc6cc7c(cc6C5)C(=O)N(C5CCC(=O)NC5=O)C7=O)C4)C3)cc2F)N1CC(F)F` (stereo partly drawn) [E 229, 6-(1-(1-(4-((1R,3R)-2-(2,2-difluoroethyl)-3-methyl-2,3,4,9-tetrahydro-1H-pyrido[3,4-b]indol-1-yl)-3,5-difluorophenyl)azetidine-3-carbonyl)azetidin-3-yl)-2-(2,6-dioxopiperidin-3-yl)-6,7-dihydropyrrolo[3,4-f]isoindole-1,3(2H,5H)-dione], the DC50 lay in the range of 10 to 100 nM.

For the compound `O=C1CCC(N2C(=O)c3cc4c(cc3C2=O)CCN(C(=O)CN2CCC3(CC2)CCN(c2ccc([C@@H]5c6ccc(O)cc6CC[C@@H]5c5ccccc5)cc2)CC3)CC4)C(=O)N1` (stereo partly drawn) [E 167, 2-(2,6-dioxopiperidin-3-yl)-7-(2-(9-(4-((1R,2S)-6-hydroxy-2-phenyl-1,2,3,4-tetrahydronaphthalen-1-yl)phenyl)-3,9-diazaspiro[5.5]undecan-3-yl)acetyl)-6,7,8,9-tetrahydroazepino[4,5-f]isoindole-1,3(2H,5H)-dione], the DC50 is more than 100 nM.

`CN(C1CN(c2ccc([C@@H]3c4ccc(O)cc4CC[C@@H]3c3ccccc3)cc2)C1)[C@H]1CC[C@@H](C(=O)N2Cc3cc4c(cc3C2)C(=O)N(C2CCC(=O)NC2=O)C4)CC1` (single isomer, unassigned) [E 356]: the DC50 was more than 100 nM.

`CN(C1CCC(CN2Cc3cc4c(cc3C2)C(=O)N(C2CCC(=O)NC2=O)C4=O)CC1)C1CCN(c2ccc([C@@H]3c4ccc(O)cc4CC[C@@H]3c3ccccc3)cc2)CC1` (stereo partly drawn) [E 289, 2-(2,6-dioxopiperidin-3-yl)-6-((4-((1-(4-((1R,2S)-6-hydroxy-2-phenyl-1,2,3,4-tetrahydronaphthalen-1-yl)phenyl)piperidin-4-yl)(methyl)amino)cyclohexyl)methyl)-6,7-dihydropyrrolo[3,4-f]isoindole-1,3(2H,5H)-dione]: the half-maximal degradation concentration (DC50) was more than 100 nM.

For the compound `C[C@@H]1Cc2c([nH]c3ccccc23)[C@@H](c2c(F)cc(N3CCC4(CC3)CN(C(=O)CN3Cc5cc6c(cc5C3)C(=O)N(C3CCC(=O)NC3=O)C6=O)C4)cc2F)N1CC(F)F` (stereo partly drawn) [E 111, 6-(2-(7-(4-((1R,3R)-2-(2,2-difluoroethyl)-3-methyl-2,3,4,9-tetrahydro-1H-pyrido[3,4-b]indol-1-yl)-3,5-difluorophenyl)-2,7-diazaspiro[3.5]nonan-2-yl)-2-oxoethyl)-2-(2,6-dioxopiperidin-3-yl)-6,7-dihydropyrrolo[3,4-f]isoindole-1,3(2H,5H)-dione], the DC50 is less than 10 nM.

With `C[C@@H]1Cc2c([nH]c3ccccc23)[C@@H](c2ccc(N3CCC(C(=O)N4CCC(N5Cc6cc7c(cc6C5)C(=O)N(C5CCC(=O)NC5=O)C7=O)CC4)CC3)cc2F)N1CC(F)F` (stereo partly drawn) [E 302, 6-(1-(1-(4-((1R,3R)-2-(2,2-difluoroethyl)-3-methyl-2,3,4,9-tetrahydro-1H-pyrido[3,4-b]indol-1-yl)-3-fluorophenyl)piperidine-4-carbonyl)piperidin-4-yl)-2-(2,6-dioxopiperidin-3-yl)-6,7-dihydropyrrolo[3,4-f]isoindole-1,3(2H,5H)-dione], the DC50 is less than 10 nM.
